Row | melting point | Compound
1 | 242 to 244 °C | CCN(CC)Cc1c(C)[nH]c(C=C2C(=O)NN=C2c2cnccn2)c1C [Example 166, 4-[(4-Diethylaminomethyl-3,5-dimethylpyrrol-2-yl)methylene]-3-pyrazinyl-2-pyrazolin-5-one]
2 | 240 to 242 °C | Cc1[nH]c(C=C2C(=O)NN=C2c2cnccn2)c(C)c1CN1CCCCC1 [Example 167, 4-[(3,5-Dimethyl-4-piperidinomethylpyrrol-2-yl)methylene]-3-pyrazinyl-2-pyrazolin-5-one]
3 | 215 to 217 °C | Cc1[nH]c(C=C2C(=O)NN=C2c2ccno2)c(C)c1CN1CCCCC1 [Example 168, 4-[(3,5-Dimethyl-4-piperidinomethylpyrrol-2-yl)methylene]-3-(5-isoxazolyl)-2-pyrazolin-5-one]
4 | 161 to 163 °C | Cc1[nH]c(C=C2C(=O)NN=C2c2ccno2)c(C)c1CN(C)C [Example 169, 4-[(3,5-Dimethyl-4-dimethylaminomethylpyrrol-2-yl)methylene]-3-(5-isoxazolyl)-2-pyrazolin-5-one]
5 | 193 to 195 °C | Cc1[nH]c(C=C2C(=O)NN=C2c2cnccn2)cc1CN(C)C [Example 170, 4-[(5-Methyl-4-dimethylaminomethylpyrrol-2-yl)methylene]-3-pyrazinyl-2-pyrazolin-5-one]
6 | 199 to 201 °C | Cc1[nH]c(C=C2C(=O)NN=C2C2CC2)c(C)c1CN(C)C.O=C(O)/C=C\C(=O)O [Example 174, 3-Cyclopropyl-4-[(3,5-dimethyl-4-dimethylaminomethylpyrrol-2-yl)methylene]-2-pyrazolin-5-one maleate]
7 | 213 °C (dec.) | Cc1[nH]c(C=C2C(=O)NN=C2c2cnccn2)c(C)c1C(=O)CCCl [Example 175, 4-{[4-(3-Chloropropionyl)-3,5-dimethylpyrrol-2-yl]methylene}-3-pyrazinyl-2-pyrazolin-5-one]
8 | 242 to 244 °C | Cc1cc(C2=NNC(=O)C2=Cc2[nH]c(C)c(CN(C)C)c2C)no1 [Example 177, 4-[(3,5-Dimethyl-4-dimethylaminomethylpyrrol-2-yl)methylene]-3-(5-methyl-3-isoxazolyl)-2-pyrazolin-5-one]
9 | 255 to 257 °C | Cc1[nH]c(C=C2C(=O)NN=C2c2cnccn2)c(C)c1CN1CCC(O)CC1 [Example 178, 4-{[3,5-Dimethyl-4-(4-hydroxypiperidinomethyl)pyrrol-2-yl]methylene}-3-pyrazinyl-2-pyrazolin-5-one]
10 | 205 to 208 °C | Cc1[nH]c(C=C2C(=O)NN=C2c2cnccn2)c(C)c1CN.O=C(O)/C=C\C(=O)O [Example 179, 4-[(4-Aminomethyl-3,5-dimethylpyrrol-2-yl)methylene]-3-pyrazinyl-2-pyrazolin-5-one maleate]
11 | 211 to 214 °C | O=C1NN=C(c2cnccn2)C1=Cc1cc(CN2CCC(Cc3ccccc3)CC2)c[nH]1 [Example 180, 4-{[4-(4-Benzylpiperidino)methylpyrrol-2-yl]methylene}-3-pyrazinyl-2-pyrazolin-5-one]
12 | 306 to 308 °C | Cc1[nH]c(C=C2C(=O)NN=C2c2cnccn2)c(C)c1CCO [Example 181, 4-{[3,5-Dimethyl-4-(2-hydroxyethyl)pyrrol-2-yl]methylene}-3-pyrazinyl-2-pyrazolin-5-one]
13 | 244 to 246 °C | Cc1[nH]c(C=C2C(=O)NN=C2C2CC2)c(C)c1CCO [Example 184, 3-Cyclopropyl-4-{[3,5-Dimethyl-4-(2-hydroxyethyl)pyrrol-2-yl]methylene}-2-pyrazolin-5-one]
14 | 192 to 194 °C | CCNCCc1c(C)[nH]c(C=C2C(=O)NN=C2c2cnccn2)c1C [Example 185, 4-{[3,5-Dimethyl-4-(2-ethylaminoethyl)pyrrol-2-yl]methylene}-3-pyrazinyl-2-pyrazolin-5-one]
15 | 208.1 °C | CCN(CC)CCCc1c(C)[nH]c(C=C2C(=O)NN=C2c2cnccn2)c1C [Example 186, 4-{[4-(3-Diethylaminopropyl)-3,5-dimethylpyrrol-2-yl]methylene}-3-pyrazinyl-2-pyrazolin-5-one]
16 | 273 to 275 °C | Cc1[nH]c(C=C2C(=O)NN=C2c2cnccn2)c(C)c1CCCO [Example 187, 4-{[3,5-Dimethyl-4-(3-hydroxypropyl)pyrrol-2-yl]methylene}-3-pyrazinyl-2-pyrazolin-5-one]
17 | 198 °C | CCOC1=NNC(=O)C1=Cc1[nH]c(C)c(C(=O)CN(C)C)c1C [Example 189, 4-[(3,5-Dimethyl-4-dimethylaminoacetylpyrrol-2-yl)methylene]-3-ethoxy-2-pyrazolin-5-one]
18 | 216 °C | Cc1[nH]c(C=C2C(=O)NN=C2c2cnccn2)c(C)c1CCN(C)C [Example 191, 4-{[3,5-Dimethyl-4-(2-dimethylaminoethyl)pyrrol-2-yl]methylene}-3-pyrazinyl-2-pyrazolin-5-one]
19 | 222 °C | Cc1[nH]c(C=C2C(=O)NN=C2c2cnccn2)c(C)c1CCCCO [Example 192, 4-{[3,5-Dimethyl-4-(4-hydroxybutyl)pyrrol-2-yl]methylene}-3-pyrazinyl-2-pyrazolin-5-one]
20 | 184 °C | CCN(CC)CCCCc1c(C)[nH]c(C=C2C(=O)NN=C2c2cnccn2)c1C [Example 193, 4-{[4-(4-Diethylaminobutyl)-3,5-dimethylpyrrol-2-yl]methylene}-3-pyrazinyl-2-pyrazolin-5-one]

Row | melting point | Compound
21 | 199 °C | CCN(CC)CC(=O)c1c(C)[nH]c(C=C2C(=O)NN=C2c2cnccn2)c1C [Example 196, 4-[(4-Diethylaminoacetyl-3,5-dimethylpyrrol-2-yl)methylene]-3-pyrazinyl-2-pyrazolin-5-one]
22 | 244 °C | Cc1cc(C(C)C)c(C=C2C(=O)NN=C2c2cnccn2)[nH]1 [Example 197, 4-[(3-Isopropyl-5-methylpyrrol-2-yl)methylene]-3-pyrazinyl-2-pyrazolin-5-one]
23 | 227 °C | Cc1[nH]c(C=C2C(=O)NN=C2c2cnccn2)c(C(C)C)c1CN(C)C [Example 199, 4-[(Dimethylaminomethyl-3-isopropyl-5-methylpyrrol-2-yl)methylene]-3-pyrazinyl-2-pyrazolin-5-one]
24 | 190 to 192 °C | Cc1[nH]c(C=C2C(=O)NN=C2C2CC2)c(C(C)C)c1CN(C)C [Example 200, 3-Cyclopropyl-4-[(dimethylaminomethyl-3-isopropyl-5-methylpyrrol-2-yl)methylene]-2-pyrazolin-5-one]
25 | 210 to 218 °C | Cc1[nH]c(C=C2C(=O)NN=C2c2cnccn2)c(C)c1CCNC1CC1 [Example 203, 4-{[4-(2-Cyclopropylaminoethyl)-3,5-dimethylpyrrol-2-yl]methylene}-3-pyrazinyl-2-pyrazolin-5-one]
26 | 203 to 205 °C | Cc1[nH]c(C=C2C(=O)NN=C2c2cnccn2)c(C)c1CCNCc1ccncc1 [Example 204, 4-{{3,5-Dimethyl-4-[2-(4-pyridylmethylamino)ethyl]pyrrol-2-yl}methylene}-3-pyrazinyl-2-pyrazolin-5-one]
27 | 144 to 146 °C | CCN(CC)CCc1c(C)[nH]c(C=C2C(=O)NN=C2c2ncccn2)c1C [Example 206, 4-{[4-(2-Diethylaminoethyl)-3,5-dimethylpyrrol-2-yl]methylene}-3-(2-pyrimidinyl)-2-pyrazolin-5-one]
28 | 218 to 220 °C | CCN(CC)CCc1c(C)[nH]c(C=C2C(=O)NN=C2c2cccnn2)c1C [Example 207, 4-{[4-(2-Diethylaminoethyl)-3,5-dimethylpyrrol-2-yl]methylene}-3-(3-pyridazinyl)-2-pyrazolin-5-one]
29 | 220 °C | CCN(CC)CCc1c(C)[nH]c(C=C2C(=O)NN=C2c2ccncn2)c1C [Example 208, 4-{[4-(2-Diethylaminoethyl)-3,5-dimethylpyrrol-2-yl]methylene}-3-(4-pyrimidinyl)-2-pyrazolin-5-one]
30 | 212 to 216 °C | CCN(CC)CCc1c(C)[nH]c(C=C2C(=O)NN=C2c2ccnnc2)c1C [Example 209, 4-{[4-(2-Diethylaminoethyl)-3,5-dimethylpyrrol-2-yl]methylene}-3-(4-pyridazinyl)-2-pyrazolin-5-one]
31 | 292 to 295 °C | O=C1NN=C(Cc2ccccc2)C1=Cc1c[nH]c2ccccc12 [Example 210, 3-Benzyl-4-[(indol-3-yl)methylene]-2-pyrazolin-5-one]
32 | 217 to 220 °C | O=C1NN=C(Cc2ccccc2)C1=Cc1cn(CCCCO)c2ccccc12 [Example 211, 3-Benzyl-4-{[1-(4-hydroxybutyl)indol-3-yl]methylene}-2-pyrazolin-5-one]
33 | 266 to 268 °C | COc1ccc(OCC2=NNC(=O)C2=Cc2c[nH]c3ccccc23)cc1 [Example 212, 4-[(Indol-3-yl)methylene]-3-(4-methoxyphenyloxymethyl)-2-pyrazolin-5-one]
34 | 284 to 286 °C | O=C1NN=C(COc2ccccc2)C1=Cc1c[nH]c2ccccc12 [Example 213, 4-[(Indol-3-yl)methylene]-3-phenyloxymethyl-2-pyrazolin-5-one]
35 | 264 to 267 °C | O=C1NN=C(COc2ccc(Cl)cc2)C1=Cc1c[nH]c2ccccc12 [Example 214, 3-(4-Chlorophenyloxymethyl)-4-[(indol-3-yl)methylene]-2-pyrazolin-5-one]
36 | 265 to 270 °C | COc1ccc(CC2=NNC(=O)C2=Cc2c[nH]c3ccccc23)cc1 [Example 215, 4-[(Indol-3-yl)methylene]-3-(4-methoxybenzyl)-2-pyrazolin-5-one]
37 | 288 to 291 °C | Cc1ccc(OCC2=NNC(=O)C2=Cc2c[nH]c3ccccc23)cc1 [Example 216, 4-[(Indol-3-yl)methylene]-3-(4-methylphenyloxymethyl)-2-pyrazolin-5-one]
38 | 268 to 270 °C | O=C1NN=C(CCc2ccccc2)C1=Cc1c[nH]c2ccccc12 [Example 217, 4-[(Indol-3-yl)methylene]-3-phenylethyl-2-pyrazolin-5-one]
39 | 280 to 282 °C | Cc1ccc(CC2=NNC(=O)C2=Cc2c[nH]c3ccccc23)cc1 [Example 219, 4-[(Indol-3-yl)methylene]-3-(4-methylbenzyl)-2-pyrazolin-5-one]
40 | 265 to 267 °C | O=C1NN=C(Nc2ccccc2)C1=Cc1c[nH]c2ccccc12 [Example 220, 4-[(Indol-3-yl)methylene]-3-phenylamino-2-pyrazolin-5-one]

Reference: patent US7060822B1, “2-pyrazolin-5-ones” (Abbott GmbH & Co. KG, priority 1999, dated 2006)
